Reference: patent publication US20150353495A1 (PORTOLA PHARMACEUTICALS, INC., priority 2010, published 2015)

What was measured:
Type in all cases: biochemical
[1] = molecular target: T1, JAK1 (Homo sapiens, UniProt P23458); test: Z'-LYTE kinase assay JAK1
T1 construct: 5 μl of catalytic domain recombinant Kinase enzyme+Tyr peptide substrate (Invitrogen, CA); purchased Invitrogen
How it was run: (§1)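 Read-out is FRET fluorescence between coumarin and fluorescein on a Tyr6 peptide, lost when the development protease cleaves unphosphorylated substrate. Kinase reaction used recombinant catalytic domain with ATP, 1 h at room temperature, 1% DMSO.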

[2] = molecular target: T2, JAK2 (Homo sapiens, UniProt O60674); test: Z'-LYTE kinase assay JAK2
T2 construct: 5 μl of catalytic domain recombinant Kinase enzyme+Tyr peptide substrate (Invitrogen, CA); purchased Invitrogen
T2 sequence (O60674 849-1124 limits assumed): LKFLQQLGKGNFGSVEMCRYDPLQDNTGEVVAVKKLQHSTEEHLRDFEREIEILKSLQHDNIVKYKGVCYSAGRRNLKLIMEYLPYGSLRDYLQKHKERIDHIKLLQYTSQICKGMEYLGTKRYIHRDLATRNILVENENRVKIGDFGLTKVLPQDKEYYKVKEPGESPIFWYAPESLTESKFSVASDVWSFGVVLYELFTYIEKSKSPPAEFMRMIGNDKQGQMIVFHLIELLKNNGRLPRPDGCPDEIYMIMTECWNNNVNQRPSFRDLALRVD
How it was run: as §1

[3] = molecular target: T3, JAK3 (Homo sapiens, UniProt P52333); test: Z'-LYTE kinase assay JAK3
T3 construct: 5 μl of catalytic domain recombinant Kinase enzyme+Tyr peptide substrate (Invitrogen, CA); purchased Invitrogen
T3 sequence (P52333 822-1111 limits assumed): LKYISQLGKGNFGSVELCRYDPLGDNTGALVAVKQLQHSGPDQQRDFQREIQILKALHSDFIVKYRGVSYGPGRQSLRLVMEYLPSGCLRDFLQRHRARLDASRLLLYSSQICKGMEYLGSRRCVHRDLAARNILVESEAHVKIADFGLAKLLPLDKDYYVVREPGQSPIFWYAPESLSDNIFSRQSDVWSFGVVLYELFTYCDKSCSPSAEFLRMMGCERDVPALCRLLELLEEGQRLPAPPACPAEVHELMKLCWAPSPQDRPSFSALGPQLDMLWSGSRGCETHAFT
How it was run: as §1

[4] = molecular target: T4, TYK2 (Homo sapiens, UniProt P29597); test: Z'-LYTE kinase assay TYK2
T4 construct: 5 μl of catalytic domain recombinant Kinase enzyme+Tyr peptide substrate (Invitrogen, CA); purchased Invitrogen
T4 sequence (P29597 897-1176 limits assumed): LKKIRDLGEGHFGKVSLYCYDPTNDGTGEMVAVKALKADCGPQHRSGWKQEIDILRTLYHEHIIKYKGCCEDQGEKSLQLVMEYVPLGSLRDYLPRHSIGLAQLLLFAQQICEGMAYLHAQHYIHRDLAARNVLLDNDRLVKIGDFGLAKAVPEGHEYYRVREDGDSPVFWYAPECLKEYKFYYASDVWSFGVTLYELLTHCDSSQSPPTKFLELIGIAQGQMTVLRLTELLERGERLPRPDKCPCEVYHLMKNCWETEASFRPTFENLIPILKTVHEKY
Experimental: JAK and TYK2 tyrosine phosphorylation activity is measured using the Z′-LYTE™ Technology developed by Invitrogen Corporation (Carlsbad, Calif.). For JAK1, JAK2 and JAK3 the Z′-LYTE™ Kinase Assay Kit-Tyr6 Peptide (part number PV4122) was used. For TYK2 the Z′-LYTE™ Kinase Assay Kit-Tyr6 Peptide (part number PV3192) was used. The Z′-LYTE™ biochemical assay employs a fluorescence resonance energy transfer (FRET) coupled-enzyme format and is based on the differential sensitivity of phosphorylated and non-phosphorylated peptides to proteolitic cleavage. The assay uses a synthetic peptide substrate that is labelled with a donor fluorophore (coumarin) and an acceptor fluorophore (fluorescein) that make up a FRET pair. In the primary reaction (the Kinase Reaction), the kinase transfers the γ-phosphate of ATP to a single tyrosine residue on the substrate, while the presence of a kinase inhibitor in the primary reaction suppresses phosphorylation. In the secondary reaction (the Development Reaction), a site-specific protease (the Development Reagent) is added. The development buffer quenches the Kinase Reaction, while the protease recognizes and cleaves non-phosphorylated Z′-LYTE™ peptide substrate. Cleavage disrupts FRET between the donor and acceptor fluorophores on the non-phosphoryleted substrate, while uncleaved, phosphorylated substrate maintains FRET.
To test the ability of candidate molecules to inhibit JAK tyrosine phosphorylation activity, molecules are reconstituted in 100% DMSO and serially diluted 1:10 in polypropylene v-bottom microtiter plates. The candidate molecules are then diluted 1:25 into kinase buffer and 2.5 μl transferred into duplicate wells of a 384 well low volume black microtiter assay plate (Corning, USA). The final DMSO concentration in the assay is 1%. The kinase reaction contains 2.5 μl of a candidate molecule, 5 μl of catalytic domain recombinant Kinase enzyme+Tyr peptide substrate (Invitrogen, CA) and 2.5 μl ATP (Invitrogen, CA). The kinase reaction is allowed to procede for 1 hour at room temperature. The protease reaction is initiated by the addition of 5 μl Development Reagent (Invitrogen, CA). After 1 hour incubation at room temperature the fluorescence is measured using a FlexStation plate reader (Molecular Devices, Sunnyvale, Calif.). The reader settings used are as follows: Fluorescence mode, endpoint, top read, excitation 400 nm, emission 445 nm and 520 nm, Auto Cutoff 435 nm and 515 nm, PMT sensitivity high, 6 reads per well Inhibition of JAK kinase activity is calculated as the percent phosphorylation of substrate in the presence of inhibitor compared to the percent phosphorylation of substrate in the absence of inhibitor. IC50's were derived using Xlfit 4.3 (IDBS, UK), 4 parameter logistic model 205: Y=(A+4B-A)/(1+((C/x)AD)))).

T1 sequence (P23458 875-1153 limits assumed): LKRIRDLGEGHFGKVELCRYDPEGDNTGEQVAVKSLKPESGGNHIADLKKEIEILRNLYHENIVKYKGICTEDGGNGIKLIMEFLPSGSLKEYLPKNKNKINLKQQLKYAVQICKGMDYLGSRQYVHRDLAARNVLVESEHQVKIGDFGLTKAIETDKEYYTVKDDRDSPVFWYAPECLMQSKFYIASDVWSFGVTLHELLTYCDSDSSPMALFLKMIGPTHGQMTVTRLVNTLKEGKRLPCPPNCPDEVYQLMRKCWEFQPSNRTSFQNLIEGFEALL

| SMILES | IC50 [1] [nM] | IC50 [2] [nM] | IC50 [3] [nM] | IC50 [4] [nM] |
| --- | --- | --- | --- | --- |
| CC(=O)N1CCN(c2ccc(Nc3cc(NC4Cc5ccccc5C4)c(C(N)=O)cn3)cc2)CC1 [Example 253, 6-(4-(4-acetylpiperazin-1-yl)phenylamino)-4-(2,3-dihydro-1H-inden-2-ylamino)nicotinamide] | > 1000 | 100 to 1000 | 100 to 1000 | 100 to 1000 |
| CC(=O)N1CCN(c2ccc(Nc3cc(NCC4CC4)c(C(N)=O)cn3)cc2)CC1 [Example 238, 6-(4-(4-acetylpiperazin-1-yl)phenylamino)-4-(cyclopropylmethylamino)nicotinamide] | > 1000 | 100 to 1000 | 100 to 1000 | 100 to 1000 |
| CC(=O)N1CCC[C@H](CNc2cc(Nc3ccc(C(=O)N(C)C)c(C)c3)ncc2C(N)=O)C1 [Example 443] | > 1000 | 100 to 1000 | 1 to 10 | 100 to 1000 |
| CC(=O)N1CCN(c2ccc(Nc3cc(NCc4ccc5c(c4)OCO5)c(C(N)=O)cn3)cc2)CC1 [Example 254, 6-(4-(4-acetylpiperazin-1-yl)phenylamino)-4-(benzo[d][1,3]dioxol-5-ylmethylamino)nicotinamide] | > 1000 | 100 to 1000 | 10 to 100 | > 1000 |
| C[C@@H](Nc1nc(Nc2ccc(OCCN3CCCC3)cc2)c(F)cc1C(N)=O)c1ccccc1 [Example 27, (R)-5-fluoro-2-(1-phenylethylamino)-6-(4-(2-(pyrrolidin-1-yl)ethoxy)phenylamino)nicotinamide] | > 1000 | > 1000 | > 1000 | > 1000 |
| CC(=O)Nc1cccc(Nc2nc(NC3CCCC3)c(C(N)=O)cc2F)c1 [Example 18, 6-(3-acetamidophenylamino)-2-(cyclopentylamino)-5-fluoronicotinamide] | > 1000 | > 1000 | > 1000 | 100 to 1000 |
| NC(=O)c1cnc(Nc2ccccc2)cc1NCc1ccccc1 [Example 9, 4-(benzylamino)-6-(phenylamino)nicotinamide] | > 1000 | > 1000 |  | > 1000 |
| NC(=O)c1cnc(Nc2ccc(N3CCOCC3)cc2)c(Cl)c1NCc1cccc(F)c1 [Example 377, 5-chloro-4-(3-fluorobenzylamino)-6-(4-morpholinophenylamino)nicotinamide] | > 1000 | > 1000 | 100 to 1000 | > 1000 |
| COc1ccc(Nc2cc(Nc3ccc(N4CCOCC4)cc3)c(C(N)=O)cn2)cc1 [Example 17, 6-(4-methoxyphenylamino)-4-(4-morpholinophenylamino)nicotinamide] | > 1000 | > 1000 | 100 to 1000 | > 1000 |
| NC(=O)c1cc(F)c(Nc2ccc(OCCN3CCCC3)cc2)nc1NCc1ccccc1 [Example 26, 2-(benzylamino)-5-fluoro-6-(4-(2-(pyrrolidin-1-yl)ethoxy)phenylamino)nicotinamide] | > 1000 | > 1000 | > 1000 | > 1000 |
| CC(=O)N1CCN(c2ccc(Nc3cc(NC4(c5ccccc5)CC4)c(C(N)=O)cn3)cc2)CC1 [Example 126, 6-(4-(4-acetylpiperazin-1-yl)phenylamino)-4-(1-phenylcyclopropylamino)nicotinamide] | > 1000 | 100 to 1000 | 1 to 10 | > 1000 |
| CN(C)C(=O)COc1ccc(Nc2cc(NC3(c4ccccc4)CC3)c(C(N)=O)cn2)cc1 [Example 366, 6-(4-(2-(dimethylamino)-2-oxoethoxy)phenylamino)-4-(1-phenylcyclopropylamino)nicotinamide] | > 1000 | 100 to 1000 | 10 to 100 | > 1000 |

Next, values leading:

| IC50 [1] [nM] | IC50 [2] [nM] | IC50 [3] [nM] | IC50 [4] [nM] | SMILES |
| --- | --- | --- | --- | --- |
| > 1000 | 100 to 1000 | 10 to 100 | > 1000 | NC(=O)c1cnc(Nc2cccc(N3CCNCC3)c2)cc1NC1(c2ccccc2)CC1 [Example 367, 4-(1-phenylcyclopropylamino)-6-(3-(piperazin-1-yl)phenylamino)nicotinamide] |
| 100 to 1000 | 100 to 1000 | 1 to 10 | > 1000 | N#CCOc1ccc(Nc2cc(NCc3ccccc3)c(C(N)=O)cn2)cc1 [Example 384] |
| 100 to 1000 | 100 to 1000 | 1 to 10 | 10 to 100 | Cc1cc(Nc2cc(NCc3ccccc3)c(C(N)=O)cn2)ccc1C(=O)N(C)C1CC1 [Example 450, 4-(benzylamino)-6-(4-(cyclopropyl(methyl)carbamoyl)-3-methylphenylamino)nicotinamide] |
| 100 to 1000 | 10 to 100 | 1 to 10 | 10 to 100 | CN(C)C(=O)c1ccc(Nc2cc(NCc3c(F)cccc3F)c(C(N)=O)cn2)cc1 [Example 102, 4-(2,6-difluorobenzylamino)-6-(4-(dimethylcarbamoyl)phenylamino)nicotinamide] |
| 100 to 1000 | 10 to 100 | 1 to 10 | 100 to 1000 | Cc1cc(Nc2cc(NCc3ccccc3)c(C(N)=O)cn2)ccc1C(=O)N1CCCC1 [Example 446, 4-(benzylamino)-6-(3-methyl-4-(pyrrolidine-1-carbonyl)phenylamino)nicotinamide] |
| 100 to 1000 | 100 to 1000 | 10 to 100 | 100 to 1000 | CCC(=O)N1CCC(c2ccc(Nc3cc(NCc4cccnc4)c(C(N)=O)cn3)cc2)CC1 [Example 187, 6-(4-(1-propionylpiperidin-4-yl)phenylamino)-4-(pyridin-3-ylmethylamino)nicotinamide] |
| 100 to 1000 | 10 to 100 | 1 to 10 | 100 to 1000 | Cc1cc(Nc2cc(NCc3ccccc3)c(C(N)=O)cn2)ccc1C(=O)N(C)C [Example 438, 4-(benzylamino)-6-(4-(dimethylcarbamoyl)-3-methylphenylamino)nicotinamide] |
| 100 to 1000 | 100 to 1000 | 10 to 100 | 10 to 100 | CC(=O)N1CCN(c2ccc(Nc3cc(NC4CCCC4)c(C(N)=O)cn3)cc2)CC1 [Example 239, 6-(4-(4-acetylpiperazin-1-yl)phenylamino)-4-(cyclopentylamino)nicotinamide] |
| 100 to 1000 | 100 to 1000 | 10 to 100 | 10 to 100 | CC(=O)N1CCN(c2ccc(Nc3cc(NCC(C)C)c(C(N)=O)cn3)cc2)CC1 [Example 235, 6-(4-(4-acetylpiperazin-1-yl)phenylamino)-4-(isobutylamino)nicotinamide] |
| 100 to 1000 | 100 to 1000 | 1 to 10 | 10 to 100 | CC(=O)Nc1cccc(Nc2cc(NCc3cccs3)c(C(N)=O)cn2)c1 [Example 222, 6-(3-acetamidophenylamino)-4-(thiophen-2-ylmethylamino)nicotinamide] |
| 100 to 1000 | 10 to 100 | 1 to 10 | 100 to 1000 | CCC(=O)N1CCC(c2ccc(Nc3cc(NCc4cc(F)ccc4F)c(C(N)=O)cn3)cc2)CC1 [Example 149, 4-(2,5-difluorobenzylamino)-6-(4-(1-propionylpiperidin-4-yl)phenylamino)nicotinamide] |
| 100 to 1000 | 10 to 100 | 1 to 10 | 100 to 1000 | CC(=O)N1CCN(c2ccc(Nc3cc(NC4(c5ccccc5F)CC4)c(C(N)=O)cn3)cc2)CC1 [Example 130, 6-(4-(4-acetylpiperazin-1-yl)phenylamino)-4-(1-(2-fluorophenyl)cyclopropylamino)nicotinamide] |
